According to EP1142584A1, “COMPOSITIONS FOR TREATING FREQUENT URINATION AND URINARY INCONTINENCE” (Takeda Chemical Industries, Ltd., priority 1999, dated 2000):
Counter-ions that a name gives are not always drawn. Marks after values point to notes of the source that are not given here.

Columns and labels:
Format in all cases: in vivo
[1] = system: bladder capacity in urethane-anesthetized rats; assay: Bladder capacity (cystometry) in urethane-anesthetized rats (Test Example 3); settings: mean ± standard error
Protocol: The urinary frequency and urinary incontinence suppressing activity of a GABA uptake inhibitor was shown by the ability to increase bladder capacity in urethane-anesthetized rats. After a bladder was made empty by drawing out the urine, physiological saline warmed at 39°C was injected into the bladder at a constant rate (0.05 ml/min.) to induce micturition. These procedures were repeated to confirm stable bladder capacity (volume of physiological saline injected until start of micturition) and, thereafter, compounds were administered intravenously to investigate the activities. A change in bladder capacity and micturition pressure after the administration was measured. […] Table 3 Tiagabin hydrochloride was dissolved in distilled water, other drugs were dissolved in physiological saline and the drugs were administered intravenously, respectively. Data are shown as the mean ± standard error. After drug administration, animals showing an overflow urinary incontinence-like cystometrogram (urine leakage without the bladder constriction) were excluded from calculation of micturition pressure. *P<0.05, **P<0.01 (significance to the values obtained before drug administration, paired t test, two-tailed test)

[2] = system: unilaterally decerebrated rat under consciousness; assay: Micturition interval in unilaterally decerebrated rat under consciousness (Test Example 5); settings: for Micturition interval (min.) After administration / Micturition pressure (mmHg) After administration / Micturition interval (min.) Before administration / Micturition pressure (mmHg) Before administration: mean ± standard error; for Micturition interval (min.) Before administration / Micturition pressure (mmHg) Before administration: 30 minutes before drug
Protocol: The urinary frequency and urinary incontinence activity of a GABA uptake inhibitor was measured as the ability to increase the micturition interval in a unilaterally decerebrated rat under consciousness as an index. Animals were restricted in a Ballmann cage, and physiological saline was sustained-injected into the bladder at a constant rate (0.05 ml/min.) to induce repeated micturition. In a unilaterally decerebrated rat, micturition interval was decreased, and after the stable micturition interval was confirmed, a drug was administered intravenously or orally to investigate the activity (Table 5 and Table 6). The micturition interval and micturition pressure before and after drug administration were measured for 30 minutes, and the mean values were compared.
A drug was administered intravenously. Cystometogram was continuously measured for 30 minutes starting 15 minutes after drug administration, and it was compared with that for 30 minutes before drug administration. Data are shown as the means ± standard error. *P<0.05 **P<0.01 (significance to before administration, paired t test, two-tailed test) Table 6
A drug was administered orally. A bladder inner pressure curve was continuously measured for 30 minutes starting 60 minutes after drug administration, and it was compared with that for 30 minutes before drug administration. Data are shown as the mean ± standard error. *P<0.05 (significance relative to drug administration, paired t test, two-tailed test)

[3] = system: bilateral common carotid artery-ligated rat under consciousness; assay: Micturition interval in bilateral common carotid artery-ligated rat under consciousness (Test Example 4); settings: for Micturition interval (relative to before ligation, %) After administration / Micturition pressure (relative to before ligation, %) After administration: 30 minutes after administration; for Micturition interval (relative to before ligation, %) After administration / Micturition pressure (relative to before ligation, %) After administration / Micturition interval (relative to before ligation, %) Before administration / Micturition pressure (relative to before ligation, %) Before administration: mean ± standard error; for Micturition interval (relative to before ligation, %) Before administration / Micturition pressure (relative to before ligation, %) Before administration: after ligation, before drug
Protocol: The urinary frequency and urinary incontinence suppressing activity of a GABA uptake inhibitor was measured as the ability to increase the micturition interval in bilateral common carotid artery-ligated rat under consciousness as an index. An animal was restricted in a Ballmann cage, and physiological saline was sustained-injected into the bladder at a constant rate (0.1 ml/min.) to induce repeated micturition. After the stable micturition interval was confirmed, common carotid arteries were ligated bilaterally and micturition interval was decreased. A compound was administered intravenously to animals with micturition interval decreased 20% or more following ligation, and the activity was investigated. The micturition interval and micturition pressure before and after drug administration were measured for 30 minutes, and the averages are expressed as the ratio to the value before bilateral common carotid artery-ligation (Table 4). […]
Tiagabin hydrochloride was dissolved in distilled water and administered intravenously. Crystometograms for 30 minutes before and after drug administration were continuously measured and compared. Data are shown as a ratio to micturition interval and micturition pressure before bilateral common carotid artery-ligation (mean ± standard error). *P<0.05, **P<0.01 (significance relative to before drug administration, paired t test, two-tailed test)

[4] = system: rhythmic bladder contractions in urethane-anesthetized rats; assay: Rhythmic bladder contractions in urethane-anesthetized rats (Test Example 2); settings: mean ± standard error; for Reflex shutdown time: maximum observation period 30 minutes
Protocol: The urinary frequency and urinary incontinence suppressing activity of a GABA uptake inhibitor was measured as the ability to abolish the rhythmic bladder contractions in urethane-anesthetized rats as an index. An urethra was ligated, a constant volume of physiological saline warmed at 39°C was injected into the bladder to distend the detrusor muscle, and the regular rhythmic bladder contractions at a constant interval were observed. After the stable bladder contractions were confirmed, a compound was administered intravenously to investigate the activities. A time for completely suppressing the rhythmic bladder contractions after the drug administration (reflex shutdown time, a maximum observation period was 30 minutes) and a maximum contractile intravesical pressure at which the bladder contraction appeared again after the administration was measured. […] Table 2 Tiagabin hydrochloride was dissolved in distilled water, other drugs were dissolved in physiological saline, and the drugs were administered intravenously, respectively. Data are shown as mean ± standard error. *P<0.05, **P<0.01 (significance relative to the vehicle-administered control group, nonparametric Dunnett multiple comparison test, two-tailed test) ^#P<0.05 (significance to the values obtained before drug administration, paired t test, two-tailed test). A maximum contractile pressure was calculated from animals from which the bladder constriction was obtained in an observation period.

[5] = system: rhythmic bladder contractions in urethane-anesthetized guinea pig; assay: Rhythmic bladder contractions in urethane-anesthetized guinea pig (Test Example 1); settings: mean ± standard error, maximum observation period 30 minutes
Protocol: The urinary frequency and urinary incontinence suppressing activity of NO-711 hydrochloride was evaluated by the ability to increase an interval between rhythmic bladder contractions in urethane-anesthetized guinea pig as an index. In this model, an urethra was ligated, a constant volume of a physiological saline (3 to 4.5 ml) warmed at 39°C was injected into the bladder to distend, and the regular rhythmic bladder contractions at a constant interval were observed. After the stable rhythmic bladder contractions were confirmed, a compound dissolved in physiological saline was administered intravenously to investigate the activity. Immediately after administration of a drug, the time of complete suppression of the rhythmic bladder contractions (rhythmic bladder contraction shutdown time, maximum observation period was 30 minutes) was measured. Table 1 A drug was administered intravenously. *P<0.05, **P<0.01 (significance to the physiological saline-administered control group, nonparametric Dunnett multiple comparison test, two-tailed test)

[6] = 0.3 mg/kg intravenously, 30 minutes starting 15 minutes after administration
[7] = 1 mg/kg intravenously, 30 minutes starting 15 minutes after administration
[8] = 3 mg/kg intravenously, 30 minutes starting 15 minutes after administration
[9] = baseline of the 0.3 mg/kg i.v. group
[10] = baseline of the 1 mg/kg i.v. group
[11] = baseline of the 3 mg/kg i.v. group
[12] = baseline of the 0.1 mg/kg i.v. group

SMILES: Cc1ccsc1C(=CCCN1CCC[C@@H](C(=O)O)C1)c1sccc1C [Tiagabin hydrochloride, (R)-1-[4,4-bis(3-methyl-2-thienyl)-3-butenyl]-3-piperidinecarboxylic acid]
- Change in bladder capacity (Relative to before administration, %) ([1]; 1 mg/kg intravenously): 42.7±35.6%
- Change in micturition pressure (Relative to before administration, %) ([1]; 1 mg/kg intravenously): 15.2±14.6%
- Change in bladder capacity (Relative to before administration, %) ([1]; 3 mg/kg intravenously): 236.8±81.2* %
- Change in micturition pressure (Relative to before administration, %) ([1]; 3 mg/kg intravenously): 29.5±15.6%
- Change in bladder capacity (Relative to before administration, %) ([1]; 10 mg/kg intravenously): 276.4±29.4** %
- Change in micturition pressure (Relative to before administration, %) ([1]; 10 mg/kg intravenously): 2.5±10.3%
- Micturition interval (min.) After administration [2, 6]: 6.8 ± 0.9 min
- Micturition pressure (mmHg) After administration [2, 6]: 15.1±2.6 mmHg
- Micturition interval (min.) After administration [2, 7]: 6.5±1.0* min.
- Micturition pressure (mmHg) After administration [2, 7]: 14.5±1.5 mmHg
- Micturition interval (min.) After administration [2, 8]: 7.3±0.5** min.
- Micturition pressure (mmHg) After administration [2, 8]: 16.5±1.6 mmHg
- Micturition interval (min.) After administration ([2]; 3 mg/kg orally, 30 minutes starting 60 minutes after administration): 5.6 ± 0.7 min
- Micturition interval (min.) After administration ([2]; 10 mg/kg orally, 30 minutes starting 60 minutes after administration): 6.1±0.8* min.
- Micturition interval (min.) Before administration [2, 9]: 6.6 ± 1.5 min
- Micturition pressure (mmHg) Before administration [2, 9]: 13.9±2.3 mmHg
- Micturition interval (min.) Before administration [2, 10]: 5.2 ± 0.7 min
- Micturition pressure (mmHg) Before administration [2, 10]: 14.4±1.4 mmHg
- Micturition interval (min.) Before administration [2, 11]: 5.1 ± 0.5 min
- Micturition pressure (mmHg) Before administration [2, 11]: 16.1±1.4 mmHg
- Micturition interval (min.) Before administration ([2]; baseline of the 3 mg/kg oral group): 4.9 ± 0.8 min
- Micturition interval (min.) Before administration ([2]; baseline of the 10 mg/kg oral group): 4.4 ± 0.5 min
- micturition interval (result in words) ([2]; both intravenous and oral administrations, summary of Table 5 and Table 6): increased micturition interval
- Micturition interval (relative to before ligation, %) After administration ([3]; 0.1 mg/kg intravenously): 78.8±10.0%
- Micturition pressure (relative to before ligation, %) After administration ([3]; 0.1 mg/kg intravenously): 100.7±2.3%
- Micturition interval (relative to before ligation, %) After administration ([3]; 0.3 mg/kg intravenously): 92.1±12.8* %
- Micturition pressure (relative to before ligation, %) After administration ([3]; 0.3 mg/kg intravenously): 86.3±9.2%
- Micturition interval (relative to before ligation, %) After administration ([3]; 1 mg/kg intravenously): 100.0±6.5** %
- Micturition pressure (relative to before ligation, %) After administration ([3]; 1 mg/kg intravenously): 105.0±8.4%
- Micturition interval (relative to before ligation, %) After administration ([3]; 3 mg/kg intravenously): 75.5±15.0* %
- Micturition pressure (relative to before ligation, %) After administration ([3]; 3 mg/kg intravenously): 106.2 ± 5.3%
- Micturition interval (relative to before ligation, %) Before administration [3, 12]: 58.5±3.1%
- Micturition pressure (relative to before ligation, %) Before administration [3, 12]: 103.9±1.1%
- Micturition interval (relative to before ligation, %) Before administration [3, 9]: 62.5±4.9%
- Micturition pressure (relative to before ligation, %) Before administration [3, 9]: 91.3±10.6%
- Micturition interval (relative to before ligation, %) Before administration [3, 10]: 63.2±3.3%
- Micturition pressure (relative to before ligation, %) Before administration [3, 10]: 111.5±8.3%
- Micturition interval (relative to before ligation, %) Before administration [3, 11]: 46.5±11.6%
- Micturition pressure (relative to before ligation, %) Before administration [3, 11]: 105.2±10.8%
- micturition interval (result in words) ([3]; intravenously, interval decreased by bilateral common carotid artery ligation, summary of Table 4): showed an increasing effect on micturition interval
- Change in maximum contractile intravesical pressure (Relative to before administration, %) ([4]; 0.3 mg/kg intravenously): -12.6±5.8%
- Reflex shutdown time ([4]; 0.3 mg/kg intravenously): 4.7 ± 1.6 min
- Change in maximum contractile intravesical pressure (Relative to before administration, %) ([4]; 1 mg/kg intravenously): 4.5±17.3%
- Reflex shutdown time ([4]; 1 mg/kg intravenously): 11.6 ± 3.8 min
- Change in maximum contractile intravesical pressure (Relative to before administration, %) ([4]; 3 mg/kg intravenously): -19.4±11.8%
- Reflex shutdown time ([4]; 3 mg/kg intravenously): 18.0±3.5* min.
- Change in maximum contractile intravesical pressure (Relative to before administration, %) ([4]; 10 mg/kg intravenously): -31.6±10.5%
- Reflex shutdown time ([4]; 10 mg/kg intravenously): 24.6±3.1** min.

SMILES: O=C(O)C1=CCCN(CCON=C(c2ccccc2)c2ccccc2)C1 [NO-711 hydrochloride]
- Change in bladder capacity (Relative to before administration, %) ([1]; 0.3 mg/kg intravenously): -8.4±11.3%
- Change in micturition pressure (Relative to before administration, %) ([1]; 0.3 mg/kg intravenously): -18.1±10.5%
- Change in bladder capacity (Relative to before administration, %) ([1]; 1 mg/kg intravenously): 180.9±76.8* %
- Change in micturition pressure (Relative to before administration, %) ([1]; 1 mg/kg intravenously): 16.4±8.2%
- Change in bladder capacity (Relative to before administration, %) ([1]; 3 mg/kg intravenously): 188.7±45.3** %
- Change in micturition pressure (Relative to before administration, %) ([1]; 3 mg/kg intravenously): 14.6±18.2%
- Change in maximum contractile intravesical pressure (Relative to before administration, %) ([4]; 0.3 mg/kg intravenously): -3.3±3.2%
- Reflex shutdown time ([4]; 0.3 mg/kg intravenously): 3.8 ± 1.1 min
- Change in maximum contractile intravesical pressure (Relative to before administration, %) ([4]; 1 mg/kg intravenously): -19.7±5.6* %
- Reflex shutdown time ([4]; 1 mg/kg intravenously): 11.4±2.9** min.
- Change in maximum contractile intravesical pressure (Relative to before administration, %) ([4]; 3 mg/kg intravenously): -8.4±5.8%
- Reflex shutdown time ([4]; 3 mg/kg intravenously): 12.1±2.5** min.
- Rhythmic bladder contraction shutdown time ([5]; 1 mg/kg intravenously): 5.9 ± 1.3 min
- Rhythmic bladder contraction shutdown time ([5]; 3 mg/kg intravenously): 18.4±5.0* minutes
- Rhythmic bladder contraction shutdown time ([5]; 10 mg/kg intravenously): 16.9±3.6** minutes
